Data taken from PubChem BioAssay (NCI).
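Compound exposure: 48 hours, 5 concentrations, 96-well plates. The concentration for 50% growth inhibition is given as GI50. TGI: concentration producing complete growth inhibition.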

Tests used:
Assay in all cases: growth of human tumour cells (NCI), 48 h
HCT-15 colon = test system: HCT-15 colon
SK-MEL-28 melanoma = test system: SK-MEL-28 melanoma
RXF 393 renal = test system: RXF 393 renal
HL-60(TB) leukemia = test system: HL-60(TB) leukemia
HS 578T breast = test system: HS 578T breast
SR leukemia = test system: SR leukemia
T-47D breast = test system: T-47D breast
SF-295 CNS = test system: SF-295 CNS
NCI-H23 lung = test system: NCI-H23 lung
ACHN renal = test system: ACHN renal
NCI-H460 lung = test system: NCI-H460 lung
SNB-75 CNS = test system: SNB-75 CNS
K-562 leukemia = test system: K-562 leukemia
M14 melanoma = test system: M14 melanoma
A498 renal = test system: A498 renal
EKVX NSCLC = test system: EKVX NSCLC
A549 NSCLC = test system: A549 NSCLC
NCI-H522 lung = test system: NCI-H522 lung
COLO 205 colon = test system: COLO 205 colon
CAKI-1 renal = test system: CAKI-1 renal
NCI/ADR-RES ovarian = test system: NCI/ADR-RES ovarian
RPMI-8226 leukemia = test system: RPMI-8226 leukemia
SF-539 CNS = test system: SF-539 CNS
OVCAR-8 ovarian = test system: OVCAR-8 ovarian
OVCAR-5 ovarian = test system: OVCAR-5 ovarian
DU-145 prostate = test system: DU-145 prostate
SK-MEL-5 melanoma = test system: SK-MEL-5 melanoma
OVCAR-3 ovarian = test system: OVCAR-3 ovarian
BT-549 breast = test system: BT-549 breast
NCI-H226 lung = test system: NCI-H226 lung
CCRF-CEM leukemia = test system: CCRF-CEM leukemia
SW-620 colon = test system: SW-620 colon
HT29 colon = test system: HT29 colon
PC-3 prostate = test system: PC-3 prostate
SNB-19 CNS = test system: SNB-19 CNS
SK-OV-3 ovarian = test system: SK-OV-3 ovarian
UACC-257 melanoma = test system: UACC-257 melanoma
OVCAR-4 ovarian = test system: OVCAR-4 ovarian
SF-268 CNS = test system: SF-268 CNS
KM12 colon = test system: KM12 colon
UACC-62 melanoma = test system: UACC-62 melanoma
U251 CNS = test system: U251 CNS
UO-31 renal = test system: UO-31 renal
MDA-MB-231 breast = test system: MDA-MB-231 breast
MALME-3M melanoma = test system: MALME-3M melanoma
LOX IMVI melanoma = test system: LOX IMVI melanoma
786-0 renal = test system: 786-0 renal
TK-10 renal = test system: TK-10 renal
MOLT-4 leukemia = test system: MOLT-4 leukemia
HOP-62 NSCLC = test system: HOP-62 NSCLC
SN12C renal = test system: SN12C renal
MDA-MB-435 = test system: MDA-MB-435
HCC-2998 colon = test system: HCC-2998 colon
HOP-92 NSCLC = test system: HOP-92 NSCLC
SK-MEL-2 melanoma = test system: SK-MEL-2 melanoma
HCT-116 colon = test system: HCT-116 colon
MCF7 breast = test system: MCF7 breast
IGROV1 ovarian = test system: IGROV1 ovarian

Oc1ccc(CCl)c2cccnc12
GI50 (HCT-15 colon): 3.8 µM
TGI (HCT-15 colon): > 100 µM
GI50 (SK-MEL-28 melanoma): 59 µM
TGI (SK-MEL-28 melanoma): > 100 µM
GI50 (RXF 393 renal): 32.9 µM
TGI (RXF 393 renal): > 100 µM
GI50 (HL-60(TB) leukemia): 1.36 µM
TGI (HL-60(TB) leukemia): 17.7 µM
GI50 (HS 578T breast): 6.94 µM
TGI (HS 578T breast): 91.3 µM
GI50 (SR leukemia): 3.43 µM
TGI (SR leukemia): 53.6 µM
GI50 (T-47D breast): 3.65 µM
TGI (T-47D breast): > 100 µM
GI50 (SF-295 CNS): 3.72 µM
TGI (SF-295 CNS): 25.8 µM
GI50 (NCI-H23 lung): 6.13 µM
TGI (NCI-H23 lung): > 100 µM
GI50 (ACHN renal): 6.88 µM
TGI (ACHN renal): > 100 µM
GI50 (NCI-H460 lung): 3.95 µM
TGI (NCI-H460 lung): 16 µM
GI50 (SNB-75 CNS): 44 µM
TGI (SNB-75 CNS): > 100 µM
GI50 (K-562 leukemia): 3.39 µM
TGI (K-562 leukemia): > 100 µM
GI50 (M14 melanoma): 3.2 µM
TGI (M14 melanoma): > 100 µM
GI50 (A498 renal): 46.5 µM
TGI (A498 renal): > 100 µM
GI50 (EKVX NSCLC): 3.21 µM
TGI (EKVX NSCLC): 31.6 µM
GI50 (A549 NSCLC): 14.3 µM
TGI (A549 NSCLC): > 100 µM
GI50 (NCI-H522 lung): 3.62 µM
TGI (NCI-H522 lung): > 100 µM
GI50 (COLO 205 colon): 7.05 µM
TGI (COLO 205 colon): > 100 µM
GI50 (CAKI-1 renal): 5.91 µM
TGI (CAKI-1 renal): 53.3 µM
GI50 (NCI/ADR-RES ovarian): 2.98 µM
TGI (NCI/ADR-RES ovarian): 28.9 µM
GI50 (RPMI-8226 leukemia): 4.25 µM
TGI (RPMI-8226 leukemia): > 100 µM
GI50 (SF-539 CNS): 14.5 µM
TGI (SF-539 CNS): > 100 µM
GI50 (OVCAR-8 ovarian): 4.93 µM
TGI (OVCAR-8 ovarian): > 100 µM
GI50 (OVCAR-5 ovarian): 17.5 µM
TGI (OVCAR-5 ovarian): > 100 µM
GI50 (DU-145 prostate): 15.7 µM
TGI (DU-145 prostate): > 100 µM
GI50 (SK-MEL-5 melanoma): 12.4 µM
TGI (SK-MEL-5 melanoma): 35.6 µM
GI50 (OVCAR-3 ovarian): 2.08 µM
TGI (OVCAR-3 ovarian): 5.5 µM
GI50 (BT-549 breast): 32.4 µM
TGI (BT-549 breast): > 100 µM
GI50 (NCI-H226 lung): 34.6 µM
TGI (NCI-H226 lung): > 100 µM
GI50 (CCRF-CEM leukemia): 4.1 µM
TGI (CCRF-CEM leukemia): > 100 µM
GI50 (SW-620 colon): 4.12 µM
TGI (SW-620 colon): > 100 µM
GI50 (HT29 colon): 9.68 µM
TGI (HT29 colon): > 100 µM
GI50 (PC-3 prostate): 12.3 µM
TGI (PC-3 prostate): > 100 µM
GI50 (SNB-19 CNS): 22.9 µM
TGI (SNB-19 CNS): > 100 µM
GI50 (SK-OV-3 ovarian): 43.8 µM
TGI (SK-OV-3 ovarian): > 100 µM
GI50 (UACC-257 melanoma): 4.21 µM
TGI (UACC-257 melanoma): > 100 µM
GI50 (OVCAR-4 ovarian): 3.41 µM
TGI (OVCAR-4 ovarian): > 100 µM
GI50 (SF-268 CNS): 6.84 µM
TGI (SF-268 CNS): > 100 µM
GI50 (KM12 colon): 11.3 µM
TGI (KM12 colon): > 100 µM
GI50 (UACC-62 melanoma): 8.37 µM
TGI (UACC-62 melanoma): > 100 µM
GI50 (U251 CNS): 7.7 µM
TGI (U251 CNS): > 100 µM
GI50 (UO-31 renal): 2.9 µM
TGI (UO-31 renal): > 100 µM
GI50 (MDA-MB-231 breast): 6.07 µM
TGI (MDA-MB-231 breast): > 100 µM
GI50 (MALME-3M melanoma): 4.44 µM
TGI (MALME-3M melanoma): 36 µM
GI50 (LOX IMVI melanoma): 4.9 µM
TGI (LOX IMVI melanoma): > 100 µM
GI50 (786-0 renal): 37.7 µM
TGI (786-0 renal): > 100 µM
GI50 (TK-10 renal): > 100 µM
TGI (TK-10 renal): > 100 µM
GI50 (MOLT-4 leukemia): 3.96 µM
TGI (MOLT-4 leukemia): > 100 µM
GI50 (HOP-62 NSCLC): 16 µM
TGI (HOP-62 NSCLC): > 100 µM
GI50 (SN12C renal): 12.5 µM
TGI (SN12C renal): > 100 µM
GI50 (MDA-MB-435): 5.81 µM
TGI (MDA-MB-435): 95.3 µM
GI50 (HCC-2998 colon): 33.5 µM
TGI (HCC-2998 colon): > 100 µM
GI50 (HOP-92 NSCLC): 14.5 µM
TGI (HOP-92 NSCLC): 90 µM
GI50 (SK-MEL-2 melanoma): > 100 µM
TGI (SK-MEL-2 melanoma): > 100 µM
GI50 (HCT-116 colon): 3.29 µM
TGI (HCT-116 colon): > 100 µM

ClCCN1CCOC1=C1C=CC=C1
TGI (HCT-15 colon): > 100 µM
TGI (SK-MEL-28 melanoma): > 100 µM
TGI (HL-60(TB) leukemia): > 100 µM
TGI (HS 578T breast): > 100 µM
TGI (SR leukemia): 40.4 µM
TGI (T-47D breast): > 100 µM
TGI (SF-295 CNS): > 100 µM
TGI (NCI-H23 lung): > 100 µM
TGI (ACHN renal): > 100 µM
TGI (NCI-H460 lung): > 100 µM
TGI (SNB-75 CNS): > 100 µM
TGI (M14 melanoma): > 100 µM
TGI (A498 renal): > 100 µM
TGI (EKVX NSCLC): > 100 µM
TGI (A549 NSCLC): > 100 µM
TGI (COLO 205 colon): > 100 µM
TGI (CAKI-1 renal): > 100 µM
TGI (NCI/ADR-RES ovarian): > 100 µM
TGI (RPMI-8226 leukemia): > 100 µM
TGI (SF-539 CNS): > 100 µM
TGI (OVCAR-8 ovarian): > 100 µM
TGI (OVCAR-5 ovarian): > 100 µM
TGI (DU-145 prostate): > 100 µM
TGI (SK-MEL-5 melanoma): > 100 µM
TGI (OVCAR-3 ovarian): > 100 µM
TGI (BT-549 breast): > 100 µM
TGI (NCI-H226 lung): > 100 µM
TGI (CCRF-CEM leukemia): > 100 µM
TGI (SW-620 colon): > 100 µM
TGI (HT29 colon): > 100 µM
TGI (PC-3 prostate): > 100 µM
TGI (SNB-19 CNS): > 100 µM
TGI (SK-OV-3 ovarian): > 100 µM
TGI (UACC-257 melanoma): > 100 µM
TGI (SF-268 CNS): > 100 µM
TGI (KM12 colon): > 100 µM
TGI (U251 CNS): > 100 µM
TGI (UO-31 renal): > 100 µM
TGI (MDA-MB-231 breast): > 100 µM
TGI (LOX IMVI melanoma): > 100 µM
TGI (MCF7 breast): > 100 µM
TGI (786-0 renal): > 100 µM
TGI (MOLT-4 leukemia): > 100 µM
TGI (IGROV1 ovarian): > 100 µM
TGI (HOP-62 NSCLC): > 100 µM
TGI (SN12C renal): > 100 µM
TGI (MDA-MB-435): > 100 µM
TGI (HOP-92 NSCLC): > 100 µM
TGI (HCT-116 colon): > 100 µM
